Data: ChEMBL document CHEMBL4725279, “Design and synthesis of peptide-based chimeric molecules to induce degradation of the estrogen and androgen receptors” (Bioorg Med Chem, 2020)

How the values were obtained:
Assay type in all cases: cell-based
[1] = target: T1, Baculoviral IAP repeat-containing protein 2/E3 ubiquitin-protein ligase XIAP/Aryl hydrocarbon receptor (Homo sapiens, UniProt P35869+P98170+Q13490); assay: SNIPER activity at IAP/AhR in human MCF7 cells assessed as induction of AhR protein degradation by measuring AhR protein level at 5 uM incubated for 8 hrs by western blot analysis relative to lamin B; details: mcf7, 8 h
T1 sequence (P35869 whole entry): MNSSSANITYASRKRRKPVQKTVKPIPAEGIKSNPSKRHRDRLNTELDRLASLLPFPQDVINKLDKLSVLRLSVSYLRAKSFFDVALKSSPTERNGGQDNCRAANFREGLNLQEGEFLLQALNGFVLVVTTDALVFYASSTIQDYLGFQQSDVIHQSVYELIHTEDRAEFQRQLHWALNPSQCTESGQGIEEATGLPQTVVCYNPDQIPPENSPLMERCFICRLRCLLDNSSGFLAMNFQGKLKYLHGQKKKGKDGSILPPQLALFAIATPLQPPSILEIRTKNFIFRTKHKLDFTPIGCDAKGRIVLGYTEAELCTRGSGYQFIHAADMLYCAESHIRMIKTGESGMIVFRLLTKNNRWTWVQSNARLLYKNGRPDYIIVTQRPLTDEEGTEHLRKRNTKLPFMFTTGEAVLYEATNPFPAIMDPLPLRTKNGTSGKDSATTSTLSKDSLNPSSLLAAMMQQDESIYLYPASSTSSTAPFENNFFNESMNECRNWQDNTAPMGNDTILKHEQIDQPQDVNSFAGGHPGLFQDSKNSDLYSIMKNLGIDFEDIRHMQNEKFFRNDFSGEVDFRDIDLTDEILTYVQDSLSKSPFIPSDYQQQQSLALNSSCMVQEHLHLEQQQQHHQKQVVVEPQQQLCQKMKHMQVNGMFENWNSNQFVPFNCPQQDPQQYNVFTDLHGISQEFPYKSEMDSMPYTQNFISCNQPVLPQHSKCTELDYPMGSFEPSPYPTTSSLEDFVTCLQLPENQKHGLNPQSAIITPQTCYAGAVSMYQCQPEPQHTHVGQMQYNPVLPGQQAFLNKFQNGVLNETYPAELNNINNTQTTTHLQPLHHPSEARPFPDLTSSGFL
T1 sequence (P98170 whole entry): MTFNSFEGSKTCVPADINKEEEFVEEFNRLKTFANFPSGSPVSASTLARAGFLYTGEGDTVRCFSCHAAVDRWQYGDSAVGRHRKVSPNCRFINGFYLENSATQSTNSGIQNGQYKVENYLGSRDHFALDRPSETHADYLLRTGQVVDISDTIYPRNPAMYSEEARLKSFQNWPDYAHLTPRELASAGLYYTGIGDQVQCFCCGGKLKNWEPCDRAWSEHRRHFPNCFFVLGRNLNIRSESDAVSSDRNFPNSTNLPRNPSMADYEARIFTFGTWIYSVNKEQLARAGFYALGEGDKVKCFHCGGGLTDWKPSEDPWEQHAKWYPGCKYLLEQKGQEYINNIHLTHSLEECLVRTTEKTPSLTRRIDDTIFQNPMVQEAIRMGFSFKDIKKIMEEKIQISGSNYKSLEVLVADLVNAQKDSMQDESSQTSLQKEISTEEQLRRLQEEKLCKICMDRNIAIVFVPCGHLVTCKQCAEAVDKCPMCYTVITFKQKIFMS
T1 sequence (Q13490 whole entry): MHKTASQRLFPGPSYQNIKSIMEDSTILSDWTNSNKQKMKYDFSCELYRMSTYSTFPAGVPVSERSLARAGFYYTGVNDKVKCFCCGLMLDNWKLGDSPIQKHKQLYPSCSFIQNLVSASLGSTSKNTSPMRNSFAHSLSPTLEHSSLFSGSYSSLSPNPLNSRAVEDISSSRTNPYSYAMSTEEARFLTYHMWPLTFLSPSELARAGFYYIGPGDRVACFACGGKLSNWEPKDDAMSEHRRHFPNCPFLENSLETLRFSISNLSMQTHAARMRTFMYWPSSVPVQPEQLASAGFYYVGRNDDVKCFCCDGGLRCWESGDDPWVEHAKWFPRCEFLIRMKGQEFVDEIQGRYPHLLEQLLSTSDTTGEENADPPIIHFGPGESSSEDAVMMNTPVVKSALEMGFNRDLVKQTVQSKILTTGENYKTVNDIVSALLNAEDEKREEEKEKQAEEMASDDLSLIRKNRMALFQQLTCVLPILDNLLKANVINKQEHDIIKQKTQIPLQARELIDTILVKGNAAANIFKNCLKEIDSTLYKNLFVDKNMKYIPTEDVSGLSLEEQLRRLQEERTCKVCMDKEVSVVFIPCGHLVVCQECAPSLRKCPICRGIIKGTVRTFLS

[2] = target: T2, IAP/Androgen receptor (Homo sapiens) (UniProt P10275+P98170+Q13490); assay: SNIPER activity at IAP/AR in human MCF7 cells assessed as induction of AR protein degradation by measuring AR protein level at 10 uM incubated for 8 hrs by western blot analysis relative to lamin B
[3] = target: T2, IAP/Androgen receptor (Homo sapiens); assay: SNIPER activity at IAP/AR in cIAP1 siRNA-transfected human MCF7 cells assessed as induction of AR protein degradation by measuring AR protein level at 20 uM incubated for 8 hrs by western blot analysis relative to lamin B
[4] = target: T3, IAP-Estrogen receptor (Homo sapiens) (UniProt P03372+P98170+Q13490); assay: SNIPER activity at IAP/ERalpha in human MCF7 cells assessed as induction of ERalpha protein degradation by measuring ERalpha protein level at 20 uM incubated for 8 hrs in presence of ubiquitin activating inhibitor MLN7243 by western blot analysis relative to lamin B
T3 sequence (P03372 whole entry, looked up): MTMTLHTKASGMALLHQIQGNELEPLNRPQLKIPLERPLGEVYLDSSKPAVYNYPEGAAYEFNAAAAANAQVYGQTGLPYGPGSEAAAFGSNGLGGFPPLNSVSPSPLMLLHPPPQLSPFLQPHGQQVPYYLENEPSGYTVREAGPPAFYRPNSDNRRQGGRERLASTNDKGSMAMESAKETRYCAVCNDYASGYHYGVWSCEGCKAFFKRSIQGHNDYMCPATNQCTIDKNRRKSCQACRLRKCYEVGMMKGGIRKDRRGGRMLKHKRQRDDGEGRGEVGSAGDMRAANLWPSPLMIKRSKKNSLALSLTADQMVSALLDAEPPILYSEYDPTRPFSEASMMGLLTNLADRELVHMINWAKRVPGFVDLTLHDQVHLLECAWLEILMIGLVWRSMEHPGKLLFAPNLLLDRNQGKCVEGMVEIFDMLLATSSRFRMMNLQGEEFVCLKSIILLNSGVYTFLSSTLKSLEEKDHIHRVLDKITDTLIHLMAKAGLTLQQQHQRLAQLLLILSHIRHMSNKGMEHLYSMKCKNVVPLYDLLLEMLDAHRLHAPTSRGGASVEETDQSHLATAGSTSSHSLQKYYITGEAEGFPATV
T3 sequence (P98170 whole entry, looked up): as the sequence (P98170 whole entry) above
T3 sequence (Q13490 whole entry, looked up): as the sequence (Q13490 whole entry) above

[5] = target: T1, Baculoviral IAP repeat-containing protein 2/E3 ubiquitin-protein ligase XIAP/Aryl hydrocarbon receptor; assay: SNIPER activity at IAP/AhR in human MCF7 cells assessed as induction of AhR protein degradation by measuring AhR protein level at 5 uM incubated for 24 hrs by western blot analysis relative to lamin B; details: mcf7, 24 h
[6] = target: T3, IAP-Estrogen receptor (Homo sapiens); assay: SNIPER activity at IAP/ERalpha in human MCF7 cells assessed as induction of ERalpha protein degradation by measuring ERalpha protein level at 20 uM incubated for 8 hrs in presence of proteasome inhibitor, MG132 by western blot analysis relative to lamin B
[7] = target: T2, IAP/Androgen receptor (Homo sapiens); assay: SNIPER activity at IAP/AR in human MCF7 cells assessed as induction of AR protein degradation by measuring AR protein level at 20 uM incubated for 24 hrs by western blot analysis relative to lamin B
[8] = target: T2, IAP/Androgen receptor (Homo sapiens); assay: SNIPER activity at IAP/AR in XIAP/cIAP1 siRNA-transfected human MCF7 cells assessed as induction of AR protein degradation by measuring AR protein level at 20 uM incubated for 8 hrs by western blot analysis relative to lamin B
[9] = target: T2, IAP/Androgen receptor (Homo sapiens); assay: SNIPER activity at IAP/AR in human MCF7 cells assessed as induction of AR protein degradation by measuring AR protein level at 20 uM incubated for 8 hrs in presence of proteasome inhibitor, MG132 by western blot analysis relative to lamin B
[10] = target: T1, Baculoviral IAP repeat-containing protein 2/E3 ubiquitin-protein ligase XIAP/Aryl hydrocarbon receptor; assay: SNIPER activity at IAP/AhR in human MCF7 cells assessed as induction of AhR protein degradation by measuring AhR protein level at 10 uM incubated for 8 hrs by western blot analysis relative to lamin B; details: mcf7, 8 h
[11] = target: T3, IAP-Estrogen receptor (Homo sapiens); assay: SNIPER activity at IAP/ERalpha in XIAP/cIAP1 siRNA-transfected human MCF7 cells assessed as induction of ERalpha protein degradation by measuring ERalpha protein level at 20 uM incubated for 8 hrs by western blot analysis relative to lamin B
[12] = target: T3, IAP-Estrogen receptor (Homo sapiens); assay: SNIPER activity at IAP/ERalpha in human MCF7 cells assessed as induction of ERalpha protein degradation by measuring ERalpha protein level at 5 uM incubated for 8 hrs by western blot analysis relative to lamin B
[13] = target: T3, IAP-Estrogen receptor (Homo sapiens); assay: SNIPER activity at IAP/ERalpha in human MCF7 cells assessed as induction of ERalpha protein degradation by measuring ERalpha protein level at 5 uM incubated for 24 hrs by western blot analysis relative to lamin B
[14] = target: T2, IAP/Androgen receptor (Homo sapiens); assay: SNIPER activity at IAP/AR in human MCF7 cells assessed as induction of AR protein degradation by measuring AR protein level at 10 uM incubated for 24 hrs by western blot analysis relative to lamin B
[15] = target: T2, IAP/Androgen receptor (Homo sapiens); assay: SNIPER activity at IAP/AR in human MCF7 cells assessed as induction of AR protein degradation by measuring AR protein level at 20 uM incubated for 8 hrs in presence of ubiquitin activating inhibitor MLN7243 by western blot analysis relative to lamin B
[16] = target: T3, IAP-Estrogen receptor (Homo sapiens); assay: SNIPER activity at IAP/ERalpha in human MCF7 cells assessed as induction of ERalpha protein degradation incubated for 8 to 24 hrs by western blot analysis; details: time hrs 8-24
[17] = target: T2, IAP/Androgen receptor (Homo sapiens); assay: SNIPER activity at IAP/AR in XIAP siRNA-transfected human MCF7 cells assessed as induction of AR protein degradation by measuring AR protein level at 20 uM incubated for 8 hrs by western blot analysis relative to lamin B
[18] = target: T3, IAP-Estrogen receptor (Homo sapiens); assay: SNIPER activity at IAP/ERalpha in human MCF7 cells assessed as induction of ERalpha protein degradation by measuring ERalpha protein level at 10 uM incubated for 24 hrs by western blot analysis relative to lamin B
[19] = target: T3, IAP-Estrogen receptor (Homo sapiens); assay: SNIPER activity at IAP/ERalpha in human MCF7 cells assessed as induction of ERalpha protein degradation by measuring ERalpha protein level at 10 uM incubated for 8 hrs by western blot analysis relative to lamin B
[20] = target: T1, Baculoviral IAP repeat-containing protein 2/E3 ubiquitin-protein ligase XIAP/Aryl hydrocarbon receptor; assay: SNIPER activity at IAP/AhR in human MCF7 cells assessed as induction of AhR protein degradation by measuring AhR protein level at 20 uM incubated for 8 hrs in presence of ubiquitin activating inhibitor MLN7243 by western blot analysis relative to lamin B; details: mcf7, 8 h
[21] = target: T3, IAP-Estrogen receptor (Homo sapiens); assay: SNIPER activity at IAP/ERalpha in XIAP siRNA-transfected human MCF7 cells assessed as induction of ERalpha protein degradation by measuring ERalpha protein level at 20 uM incubated for 8 hrs by western blot analysis relative to lamin B
[22] = target: T1, Baculoviral IAP repeat-containing protein 2/E3 ubiquitin-protein ligase XIAP/Aryl hydrocarbon receptor; assay: SNIPER activity at IAP/AhR in human MCF7 cells assessed as induction of AhR protein degradation by measuring AhR protein level at 20 uM incubated for 8 hrs by western blot analysis relative to lamin B; details: mcf7, 8 h
[23] = target: T1, Baculoviral IAP repeat-containing protein 2/E3 ubiquitin-protein ligase XIAP/Aryl hydrocarbon receptor; assay: SNIPER activity at IAP/AhR in human MCF7 cells assessed as induction of AhR protein degradation by measuring AhR protein level at 10 uM incubated for 24 hrs by western blot analysis relative to lamin B; details: mcf7, 24 h
[24] = target: T3, IAP-Estrogen receptor (Homo sapiens); assay: SNIPER activity at IAP/ERalpha in cIAP1 siRNA-transfected human MCF7 cells assessed as induction of ERalpha protein degradation by measuring ERalpha protein level at 20 uM incubated for 8 hrs by western blot analysis relative to lamin B
[25] = target: T3, IAP-Estrogen receptor (Homo sapiens); assay: SNIPER activity at IAP/ERalpha in human MCF7 cells assessed as induction of ERalpha protein degradation by measuring ERalpha protein level at 20 uM incubated for 8 hrs by western blot analysis relative to lamin B
[26] = target: T2, IAP/Androgen receptor (Homo sapiens); assay: SNIPER activity at IAP/AR in human MCF7 cells assessed as induction of AR protein degradation by measuring AR protein level at 5 uM incubated for 8 hrs by western blot analysis relative to lamin B
[27] = target: T1, Baculoviral IAP repeat-containing protein 2/E3 ubiquitin-protein ligase XIAP/Aryl hydrocarbon receptor; assay: SNIPER activity at IAP/AhR in human MCF7 cells assessed as induction of AhR protein degradation by measuring AhR protein level at 20 uM incubated for 8 hrs in presence of proteasome inhibitor, MG132 by western blot analysis relative to lamin B; details: mcf7, 8 h
[28] = target: T3, IAP-Estrogen receptor (Homo sapiens); assay: SNIPER activity at IAP/ERalpha in human MCF7 cells assessed as induction of ERalpha protein degradation by measuring ERalpha protein level at 20 uM incubated for 24 hrs by western blot analysis relative to lamin B
[29] = target: T1, Baculoviral IAP repeat-containing protein 2/E3 ubiquitin-protein ligase XIAP/Aryl hydrocarbon receptor; assay: SNIPER activity at IAP/AhR in human MCF7 cells assessed as induction of AhR protein degradation by measuring AhR protein level at 20 uM incubated for 24 hrs by western blot analysis relative to lamin B; details: mcf7, 24 h
[30] = target: T2, IAP/Androgen receptor (Homo sapiens); assay: SNIPER activity at IAP/AR in human MCF7 cells assessed as induction of AR protein degradation by measuring AR protein level at 20 uM incubated for 8 hrs by western blot analysis relative to lamin B
[31] = target: T2, IAP/Androgen receptor (Homo sapiens); assay: SNIPER activity at IAP/AR in human MCF7 cells assessed as induction of AR protein degradation incubated for 8 to 24 hrs by western blot analysis; details: time hrs 8-24
[32] = target: T2, IAP/Androgen receptor (Homo sapiens); assay: SNIPER activity at IAP/AR in human MCF7 cells assessed as induction of AR protein degradation by measuring AR protein level at 5 uM incubated for 24 hrs by western blot analysis relative to lamin B

Row | Compound | Activity [1] | Activity [2] | Activity [4] | Activity [5] | Activity [6] | Activity [7] | Activity [9] | Activity [10] | Activity [12] | Activity [13] | Activity [14] | Activity [15] | Activity [16] | Activity [18] | Activity [19] | Activity [20] | Activity [22] | Activity [23] | Activity [25] | Activity [26] | also measured
1 | CC[C@H](C)[C@@H]1NC(=O)[C@H](NC(=O)[C@@H](N)CCCCNC(=O)COCCOCCNC(=O)COCCOCCOc2cccc(C(=O)c3csc([C@@H]4CCCN4C(=O)[C@@H](NC(=O)[C@H](C)NC)C4CCCCC4)n3)c2)CSSC[C@@H](C(=O)N[C@@H](CCCNC(=N)N)C(=O)N[C@@H](CC(C)(C)C)C(=O)N[C@@H](CC(C)C)C(=O)N[C@@H](CCC(N)=O)C(=O)NCC(=O)NCC(=O)NCC(=O)N[C@@H](CCCNC(=N)N)C(=O)N[C@@H](CCCNC(=N)N)C(=O)N[C@@H](CCCNC(=N)N)C(=O)N[C@@H](CCCNC(=N)N)C(=O)N[C@@H](CCCNC(=N)N)C(=O)N[C@@H](CCCNC(=N)N)C(=O)N[C@@H](CCCNC(=N)N)C(N)=O)NC(=O)[C@H](CC(C)C)NC1=O | 111% | 63% | 122% | 100% | 94% | 59% | 95% | 128% | 84% | 81% | 137% | 117% | Dose-dependent effect | 76% | 68% | 110% | 80% | 165% | 46% | 81% | Activity [3]: 78%; Activity [8]: 59%; Activity [11]: 55%; Activity [17]: 57%; Activity [21]: 62%; Activity [24]: 50%; Activity [27]: 90%; Activity [28]: 35%; Activity [29]: 103%; Activity [30]: 36%; Activity [31]: Dose-dependent effect; Activity [32]: 99%
2 | CC[C@H](C)[C@@H]1NC(=O)[C@H](NC(=O)[C@@H](N)CCCCNC(=O)COCCOCCNC(=O)COCCOCCNC(=O)[C@@H](NC(=O)[C@@H]2CCCN2C(=O)[C@@H](NC(=O)[C@H](C)NC)C2CCCCC2)C(c2ccccc2)c2ccccc2)CSSC[C@@H](C(=O)N[C@@H](CCCNC(=N)N)C(=O)N[C@@H](CC(C)(C)C)C(=O)N[C@@H](CC(C)C)C(=O)N[C@@H](CCC(N)=O)C(=O)NCC(=O)NCC(=O)NCC(=O)N[C@@H](CCCNC(=N)N)C(=O)N[C@@H](CCCNC(=N)N)C(=O)N[C@@H](CCCNC(=N)N)C(=O)N[C@@H](CCCNC(=N)N)C(=O)N[C@@H](CCCNC(=N)N)C(=O)N[C@@H](CCCNC(=N)N)C(=O)N[C@@H](CCCNC(=N)N)C(N)=O)NC(=O)[C@H](CC(C)C)NC1=O | 119% | 56% | 119% | 97% | 88% | 57% | 90% | 129% | 84% | 79% | 152% | 110% | Dose-dependent effect | 75% | 66% | 107% | 82% | 189% | 48% | 80% | Activity [27]: 91%; Activity [28]: 34%; Activity [29]: 125%; Activity [30]: 35%; Activity [31]: Dose-dependent effect; Activity [32]: 97%
